# Test results as given in article PMC9818267, “Brain Natriuretic Peptide Protects Cardiomyocytes from Apoptosis and Stimulates Their Cell Cycle Re-Entry in Mouse Infarcted Hearts” (Cells, 2022).
# No end group written: not given here.
# Columns and labels:
# neonatal CMs = assay: Neonatal cardiomyocyte culture treated with BNP; assay type: cell-based, mouse
# Description: Neonatal (1–2 days) C57BL/6 pups were sacrificed and CMs were isolated by enzymatic digestion according to the method previously described. Briefly, the chest was opened and the heart removed. After separation of the atria from the rest of the heart, the ventricles were minced and digested with 0.45 mg/mL collagenase (Worthington, Biochemical Corporation, Lakewood, NJ, USA) and 1 mg/mL pancreatin (Sigma). After 3 rounds of digestion, cells were plated 2 times for 45 min in order to separate CMs (non-adherent cells) from the non-myocyte cells (NMCs). Thereafter, CMs were plated on gelatine (0.1%) coated plates and cultured in 3:1 mixture of DMEM and Medium 199 (Invitrogen Corp, San Diego, CA, USA) supplemented with 10% horse serum (Oxoid), 5% fetal bovine serum (Invitrogen), 10 mM Hepes, 100 U/mL penicillin G. To homogenize the experiment, 70,000 CMs were plated per well.
# Immediately after plating, neonatal CMs were treated or not with BNP for 14 days. To inhibit NMC proliferation and to work on 95% pure CMs, cells were exposed the first 7 days of culture to cytosine-β-D-arabinofuranoside (AraC, 1 mg/mL). After 7 days of culture, AraC was removed until 14 days of culture. CMs were cultured in a hypoxia chamber (Stem Cell Technologies) flushed with 3% O2/5% CO2/92% N2 (Carbagas). Indeed, we previously observed that low oxygen concentration stimulates CM dedifferentiation and proliferation. Medium was replaced 1–2 times/week.
# CMs were treated with 3 different concentrations of BNP: 10 nM, 100 nM and 1000 nM and compared to untreated cells. Quantitative RT-qPCR, Western blot analysis as well as immunohistochemistry studies were performed after 14 days of culture.
# Troponin I+ GFP+ cells = assay: Flow cytometry count of Troponin I+ GFP+ cells in Myh6 MerCreMer hearts; assay type: in vivo, mouse; settings: unmanipulated adult Myh6 MerCreMer mice, tamoxifen then BNP, two weeks after first BNP injection, vs saline
# Description: Before surgery and/or BNP treatments, adult Myh6 MerCreMer mice (6-week-old) were injected with Tamoxifen (Sigma, Merck, Darmstadt, Germany, T5648) at 40 mg/kg to activate the Cre recombinase. Tamoxifen was dissolved in ethanol to a concentration of 100 mg/mL and emulsified in peanut oil to a final concentration of 10 mg/mL. A total of 1 mg Tamoxifen/25 g body weight was injected intraperitoneally (i.p) to adult mice one time. Two weeks after tamoxifen injection, 90–95% of pre-existing CMs expressed the GFP protein [11].
# BNP was injected into infarcted adults, and unmanipulated neonatal and adult mice. Directly after surgery, NaCl (saline) or BNP (1.3 µg/20 g in 20 µL) was injected into the left ventricle cavity. At 24 h after MI, mice were intraperitoneal (ip) injected with BNP (2 µg/20 g mice) or saline every 2 days. C57BL/6 mice were sacrificed 1- and 14 days post-MI and Myh6 MerCreMer mice were sacrificed 14 days post-MI (Figure 1A). […]
# Adult CMs were isolated using enzymatic digestion (see above). […] Cells were analyzed with CytoFLEX (Beckmann Coulter) cytometer and data generated using FlowJo 10 software (10.7.1 version, Becton Dickinson and Compagny, Franklin Lakes, NJ, USA). […] Cells were stained with DAPI and only the DAPI negative cells (living cells) were analyzed.
# Akt = assay: Western blot pAkt/Akt in adult CMs stimulated in vitro; assay type: cell-based, mouse; settings: adult CMs stimulated with BNP for 2–3 h in vitro, vs untreated
# Description: CM isolations were performed thanks to the Langendorff-Free method. […] Thereafter, the heart was removed from the chest and the left ventricle was perfused with enzymatic solution containing collagenase II (120 U/mL), collagenase IV (120 U/mL) (Worthington, Biochemical Corporation, USA) and protease XIV (0.05 mg/mL or 0.175 U/mL) (Sigma-Aldrich, Merck, Darmstadt, Germany). In each experiment, a full digestion of the heart was obtained. After digestion, cardiac cells were dissociated by gentle pipetting, filtered and collected after 25 min sedimentation. For infarcted hearts, the tissue was separated into the three zones (ZI, BZ and RZ). The three different areas were weighted before gentle pipetting.
# Total proteins were extracted from CMs isolated from adult infarcted and unmanipulated neonatal and adult hearts. Proteins were transferred to nitrocellulose membranes (Biorad) before incubation with primary antibodies overnight at 4 °C. Secondary antibodies were added 1 h at RT in the dark (Supplementary File S1). The signal was detected and quantified with the Odyssey infrared imaging system (LI-COR. Biosciences, Bad Homburg, Germany). All results were normalized to the tubulin protein level or to the total protein level thanks to stainings with the Revert 700 Total protein Stain (LI-COR).
# Troponin T = Troponin T plasma concentration (ECLIA) after MI; assay type: in vivo, mouse; settings: BNP vs saline
# Description: Troponin T plasma levels were quantified using an electrochemiluminescence immunoassay analyzer “ECLIA” (cobas e 801 immunoanalysis system, Roche Diagnostics, Rotkreuz, Switzerland) in the hematology laboratory of the Centre Hospitalier Universitaire Vaudois (CHUV). Blood was collected 24 h and 3 days after infarction induction in heparin microvette (Sarstedt, Nümbrecht, Germany).
# [1] = neonatal CMs in vitro, BNP vs untreated
# [2] = neonatal CMs in vitro, BNP vs untreated, 14 days
substance,measurement,setting,value
"Brain Natriuretic Peptide (SQGSTLRVQQRPQNSKVTHISSCFGHKIDRIGSVSRLGCNALKLL; not fully specified; ends and bridges not checked; UniProt P40753 77-121, looked up) [BNP, synthetic mouse BNP (1–45) peptide (Bachem, catalog number H-7558)]",increase of number of CMs in culture,"neonatal CMs; 10 nM BNP, 14 days, 3% O2, vs untreated",18%
same,number of small and mononucleated CMs,neonatal CMs; BNP-treated neonatal CM cultures vs untreated,higher number
same,cyclin A2 mRNA increase,neonatal CMs; [1],40%
same,cyclin B2 mRNA increase,neonatal CMs; [1],30%
same,cyclin D1 mRNA increase,neonatal CMs; [1],50%
same,increase of percentage of CMs expressing Aurkb,neonatal CMs; [2],50%
same,increase of percentage of CMs expressing Ki67,neonatal CMs; [2],23%
same,increase of number of Troponin I+ GFP+ cells,Troponin I+ GFP+ cells,28%
same,pAkt/Akt ratio increase,Akt,2.5 ×
same,Troponin T plasma concentration decrease,Troponin T; 1 day after MI,2.6 ×
same,Troponin T plasma concentration decrease,Troponin T; 3 days after MI,2.1 ×
